Laboratory results taken from patent publication US20230127498A1, “TREATMENT OF RESPIRATORY DISORDERS” (Terns, Inc., priority 2020, published 2023).
Counter-ions that a name gives are not always drawn. Like-named read-outs stand apart in the source and are kept apart here.

How the values were obtained:
[1] = cited from earlier work
[2] = in vivo; cited from earlier work
[3] = test system: rhinovirus; conditions: mice sensitized with HDM, challenged with HDM and rhinovirus; cited from earlier work
[4] = target: T1, SSAO (Homo sapiens, UniProt Q16853); experiment: Single-ascending dose clinical trial: plasma SSAO activity (H2O2 generation); type: in vivo
T1 construct: from tissue; host or cells: human plasma (healthy volunteers)
T1 sequence (Q16853 27-763 limits assumed): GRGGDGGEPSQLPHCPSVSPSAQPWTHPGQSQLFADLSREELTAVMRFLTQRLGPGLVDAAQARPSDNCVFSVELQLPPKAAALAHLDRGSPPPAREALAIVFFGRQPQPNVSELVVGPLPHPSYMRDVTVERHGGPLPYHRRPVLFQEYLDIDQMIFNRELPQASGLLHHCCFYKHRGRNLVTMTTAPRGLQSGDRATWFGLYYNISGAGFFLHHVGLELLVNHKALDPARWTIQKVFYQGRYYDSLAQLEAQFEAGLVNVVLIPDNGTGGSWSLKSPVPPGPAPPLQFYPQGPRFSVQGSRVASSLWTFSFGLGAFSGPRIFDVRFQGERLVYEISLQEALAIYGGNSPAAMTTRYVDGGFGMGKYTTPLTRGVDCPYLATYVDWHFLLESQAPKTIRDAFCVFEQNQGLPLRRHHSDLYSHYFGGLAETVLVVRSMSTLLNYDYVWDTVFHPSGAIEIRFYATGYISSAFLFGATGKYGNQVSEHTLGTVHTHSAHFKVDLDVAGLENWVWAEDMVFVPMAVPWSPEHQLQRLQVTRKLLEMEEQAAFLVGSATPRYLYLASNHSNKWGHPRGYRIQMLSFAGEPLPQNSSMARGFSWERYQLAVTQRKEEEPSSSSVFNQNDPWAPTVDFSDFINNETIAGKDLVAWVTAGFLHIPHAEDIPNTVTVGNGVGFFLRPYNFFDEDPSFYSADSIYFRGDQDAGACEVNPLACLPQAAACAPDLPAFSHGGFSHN
Procedure: (§1) Safety was assessed for 7 (±3) days after dosing.
(§2) Plasma PK parameters were determined by non-compartmental analysis.
SSAO-specific amine oxidase levels in plasma were determined using a kinetic-based assay essentially as described previously (Schilter et al). Endogenous monoamine oxidases A and B were inhibited by adding pargyline to plasma samples prior to measuring H2O2 generation levels in placebo and active recipients.

[5] = test system: methylamine (MMA); experiment: Single-ascending dose clinical trial: plasma methylamine (MMA) levels; type: in vivo, human
Procedure: as §1

[6] = Rat model of NASH; conditions: in vivo
[7] = test system: Influenza A virus, WSN/33 strain of H1N1; conditions: for Median survival time / Survival proportion / Prolonged survival time*: Formula 5 20 mg/kg QD, oseltamivir 5 mg/kg BID; for Prolonged survival time*: compared with vehicle group
[8] = mouse, in vivo; cited from earlier work
[9] = human, in vivo
Procedure: as §1, §2

[10] = Single-ascending dose clinical trial: safety, adverse events; type: in vivo, human
Procedure: as §1

## CC(C)(C)NC(=O)c1ccc(OC/C(=C/F)CN)cc1.Cl [BI 1467335]
[1]; by diminishing leukocyte rolling and adherence
  cytokine-induced cell migration: reduced
[1]; in vivo
  LPS-induced neutrophil lung migration: reduced
[2]
  airway infiltration of inflammatory immune cells: suppressed
  lung function: improved
  pulmonary fibrosis: reduced
[3]
  airway hyperreactivity: reduced
  inflammatory cellular infiltrates: reduced

## COC1CCN(c2ncc(OC/C(=C/F)CN)cn2)CC1 [Compound of Formula 5]
[4]; all dose cohorts, single dose
  inhibition of plasma SSAO activity at 4 hours post-dose: near complete inhibition
[4]; single dose
  duration of suppression of plasma SSAO activity after a single dose: up to 1 week
[4]; single doses, all subjects
  plasma amine oxidase activity: rapidly and potently decreased
[4]; single oral dose 1 mg to 10 mg
  duration of SSAO activity inhibition after a single dose: up to seven days
[5]; across the dose range, single dose
  plasma methylamine: Dose-dependent increases
[5]; after single doses
  duration of dose-dependent increases in plasma MMA: up to 1 week
[5]; single dose
  Maximum plasma MMA levels: increased
[6]
  liver fibrosis: decreases
  liver inflammation: decreases
[7]; […]
  Median survival time: 6 days
  Survival proportion: 0%
  Prolonged survival time*: 20%
[7]; monotherapy or in combination with oseltamivir
  exacerbation of viral replication or pathology: did not appear to exacerbate
[7]; prophylactic
  Prolonged survival time*: 20%

## CCOC(=O)C1=C[C@@H](OC(CC)CC)[C@H](NC(C)=O)[C@@H](N)C1 [Oseltamivir, oseltamivir, reference compound]
[7]; […]
  Median survival time: undefined
  Survival proportion: 100%
  Prolonged survival time*: undefined
[7]; prophylactic
  Prolonged survival time*: undefined

## NC/C(=C\F)COc1ccc(S(N)(=O)=O)cc1 [PXS-4681A]
[8]
  cytokine production: reduced
  effects relative to dexamethasone treatment: comparable
  leukocyte trafficking: reduced

## COC1CCN(c2ncc(OC/C(=C/F)CN)cn2)CC1 [toslyate salt of Formula 5]
[9]
  clearance from plasma: rapidly cleared from plasma
  plasma PK exposure dose proportionality: greater than dose proportional
[10]; All cohorts (n = 32)
  TEAE diagnosis and frequency: upper respiratory tract infection: 1 (3.1)
[10]; cohort 1, single oral dose 1 mg or placebo (n = 8)
  TEAE diagnosis and frequency: upper respiratory tract infection: 0
[10]; cohort 2, single oral dose 3 mg or placebo (n = 8)
  TEAE diagnosis and frequency: upper respiratory tract infection: 0
[10]; cohort 3, single oral dose 6 mg (n = 8)
  TEAE diagnosis and frequency: upper respiratory tract infection: 0
[10]; cohort 4, single oral dose 10 mg or placebo (n = 8)
  TEAE diagnosis and frequency: upper respiratory tract infection: 1 (12.5)
[10]; human, in vivo
  Subject incidence of TEAEs considered possibly treatment-related: 1 (3.1)
  Subject incidence of any TEAE: 5 (15.6)
  TEAE diagnosis and frequency: constipation: 1 (3.1)
  TEAE diagnosis and frequency: contact dermatitis: 2 (6.3)
  TEAE diagnosis and frequency: dysgeusia: 1 (3.1)
  TEAE diagnosis and frequency: headache: 1 (3.1)
  TEAE diagnosis and frequency: sore throat: 1 (3.1)
[10]; human, in vivo, po
  TEAE diagnosis and frequency: oral herpes: 1 (3.1)
